Data reported in patent publication US6121257A, “Sulfamate containing macrocyclic immunomodulators” (Abbott Laboratories, priority 1999, dated 2000).

Test system: human mixed lymphocyte reaction (MLR)
Assay: human mixed lymphocyte reaction (MLR) assay
Format: cell-based
Conditions: Table 1
Description: The immunosuppressant activity of the compounds of the present invention was determined using the human mixed lymphocyte reaction (MLR) assay described by Kino, T. et al., in Transplantation Proceedings, XIX(5):36-39, Suppl. 6 (1987), hereby incorporated by reference.

Structure (SMILES)	IC50
CC[C@@H]1/C=C(\C)C[C@H](C)C[C@H](OC)[C@H]2O[C@@](O)(C(=O)C(=O)N3CCCC[C@H]3C(=O)O[C@H](/C(C)=C/[C@@H]3CC[C@@H](OS(=O)(=O)NC(=O)OC4CCCC4)[C@H](OC)C3)[C@H](C)[C@@H](O)CC1=O)[C@H](C)C[C@@H]2OC [Example 5, (1R,9S,12S,13R,14S,17R,21S,23S,24R,25S,27R)-12-((E)-2-{(1R,3R.4R)-4-[({[(cyclopentyloxy)carbonyl]amino}sulfonyl)oxy]-3-methoxycyclohexyl}-1-methylethenyl)-17-ethyl-1,14-dihydroxy-23,25-dimethoxy-13,19,21,27-tetramethyl-2,3,10,16-tetraoxo-11,28-dioxa-4-azatricyclo[22.3.1.0^4,9]octacos-18-ene]	26.1 nM
CC[C@@H]1/C=C(\C)C[C@H](C)C[C@H](OC)[C@H]2O[C@@](O)(C(=O)C(=O)N3CCCC[C@H]3C(=O)O[C@H](/C(C)=C/[C@@H]3CC[C@@H](OS(=O)(=O)NC(=O)OCc4cccnc4)[C@H](OC)C3)[C@H](C)[C@@H](O)CC1=O)[C@H](C)C[C@@H]2OC [Example 9, (1R,9S,12S,13R,14S,17R,21S,23S,24R,25S,27R)-17-ethyl-1,14-dihydroxy-23,25-dimethoxy-12-((E)-2-{(1R,3R,4R)-3-methoxy-4-[({[(3-pyridinylmethoxy)carbonyl]amino}sulfonyl)oxy]cyclohexyl}-1-methylethenyl)-13,19,21,27-tetramethyl-2,3,10,16-tetraoxo-11,28-dioxa-4-azatricyclo[22.3.1.0^4,9]octacos-18-ene]	4.77 nM
CC[C@@H]1/C=C(\C)C[C@H](C)C[C@H](OC)[C@H]2O[C@@](O)(C(=O)C(=O)N3CCCC[C@H]3C(=O)O[C@H](/C(C)=C/[C@@H]3CC[C@@H](OS(=O)(=O)NC(=O)OCc4ccncc4)[C@H](OC)C3)[C@H](C)[C@@H](O)CC1=O)[C@H](C)C[C@@H]2OC [Example 8, (1R,9S,12S,13R,14S,17R,21S,23S,24R,25S,27R)-17-ethyl-1,14-dihydroxy-23,25-dimethoxy-12-((E)-2-{(1R,3R,4R)-3-methoxy-4-[({[(4-pyridinylmethoxy)carbonyl]amino}sulfonyl)oxy]cycyclohexyl}-1-methylethenyl)-13,19,21,27-tetramethyl-2,3,10,16-tetraoxo-11,28-dioxa-4-azatricyclo[22.3.1.0^4,9]octacos-18-ene]	0.1 nM
CC[C@@H]1/C=C(\C)C[C@H](C)C[C@H](OC)[C@H]2O[C@@](O)(C(=O)C(=O)N3CCCC[C@H]3C(=O)O[C@H](/C(C)=C/[C@@H]3CC[C@@H](OS(=O)(=O)NC(=O)OCC45CC6CC(CC(C6)C4)C5)[C@H](OC)C3)[C@H](C)[C@@H](O)CC1=O)[C@H](C)C[C@@H]2OC [Example 13, (1R,9S,12S,13R,14S,17R,21S,23S,24R,25S,27R)-12-((E)-2-{(1R,3R,4R)-4-[({[(1-adamantylmethoxy)carbonyl]amino}sulfonyl)oxy]-3-methoxycyclohexyl}-1-methylethenyl)-17-ethyl-1,14-dihydroxy-23,25-dimethoxy-13,19,21,27-tetramethyl-2,3,10,16-tetraoxo-11,28-dioxa-4-azatricyclo[22.3.1.0^4,9]octacos-18-ene]	21.6 nM
CCOC(=O)NS(=O)(=O)O[C@@H]1CC[C@@H](/C=C(\C)[C@H]2OC(=O)[C@@H]3CCCCN3C(=O)C(=O)[C@]3(O)O[C@H]([C@@H](OC)C[C@@H](C)C/C(C)=C/[C@@H](CC)C(=O)C[C@H](O)[C@H]2C)[C@@H](OC)C[C@H]3C)C[C@H]1OC [Example 2, (1R,9S12S,13R,14S,17R,21S,23S,24R,25S,27R)-12-{(E)-2-[(1R,3R,4R)-4-({[(ethoxycarbonyl)amino]sulfonyl}oxy)-3-methoxycyclohexyl]-1-methylethenyl}-17-ethyl-1,14-dihydroxy-23,25-dimethoxy-13,19,21,27-tetramethyl-2,3,10,16-tetraoxo-11,28-dioxa-4-azatricyclo[22.3.1.0^4,9]octacos-18-ene]	0.57 nM
CC[C@@H]1/C=C(\C)C[C@H](C)C[C@H](OC)[C@H]2O[C@@](O)(C(=O)C(=O)N3CCCC[C@H]3C(=O)O[C@H](/C(C)=C/[C@@H]3CC[C@@H](OS(=O)(=O)NC(=O)O[C@@H]4C[C@H](C)CC[C@H]4C(C)C)[C@H](OC)C3)[C@H](C)[C@@H](O)CC1=O)[C@H](C)C[C@@H]2OC [Example 12]	24.5 nM
CC[C@@H]1/C=C(\C)C[C@H](C)C[C@H](OC)[C@H]2O[C@@](O)(C(=O)C(=O)N3CCCC[C@H]3C(=O)O[C@H](/C(C)=C/[C@@H]3CC[C@@H](OS(=O)(=O)NC(=O)OCc4ccc([N+](=O)[O-])cc4)[C@H](OC)C3)[C@H](C)[C@@H](O)CC1=O)[C@H](C)C[C@@H]2OC [Example 11, (1R,9S,12S,13R,14S,17R,21S,23S,24R,25S,27R)-17-ethyl-1,14-dihydroxy-23,25-dimethoxy-12-[(E)-2-((1R,3R,4R)-3-methoxy-4-{[({[(4-nitrobenzyl)oxy]carbonyl}amino)sulfonyl]oxy}cyclohexyl)-1-methylethenyl]-13,19,21,27-tetramethyl-2,3,10,16-tetraoxo-11,28-dioxa-4-azatricyclo[22.3.1.0^4,9]octacos-18-ene]	6.68 nM
CC[C@@H]1/C=C(\C)C[C@H](C)C[C@H](OC)[C@H]2O[C@@](O)(C(=O)C(=O)N3CCCC[C@H]3C(=O)O[C@H](/C(C)=C/[C@@H]3CC[C@@H](OS(=O)(=O)NC(=O)OC4CCCCCC4)[C@H](OC)C3)[C@H](C)[C@@H](O)CC1=O)[C@H](C)C[C@@H]2OC [Example 7, (1R,9S,12S,13R,14S,17R,21S,23S,24R,25S,27R)-12-((E)-2-{(1R,3R,4R)-4-[({[(cycloheptyloxy)carbonyl]amino}sulfonyl)oxy]-3-methoxycyclohexyl}-1-methylethenyl)-17-ethyl-1,14-dihydroxy-23,25-dimethoxy-13,19,21,27-tetramethyl-2,3,10,16-tetraoxo-11,28-dioxa-4-azatricyclo[22.3.1.0^4,9]octacos-18-ene]	9.63 nM
CC[C@@H]1/C=C(\C)C[C@H](C)C[C@H](OC)[C@H]2O[C@@](O)(C(=O)C(=O)N3CCCC[C@H]3C(=O)O[C@H](/C(C)=C/[C@@H]3CC[C@@H](OS(=O)(=O)NC(=O)OC(C)(C)C)[C@H](OC)C3)[C@H](C)[C@@H](O)CC1=O)[C@H](C)C[C@@H]2OC [Example 4, (1R,9S,12S,13R,14S,17R,21S,23S,24R,25S,27R)-12-{(E)-2-[(1R,3R,4R)-4-({[(tert-butoxycarbonyl)amino]sulfonyl}oxy)-3-methoxycyclohexyl]-1-methylethenyl}-17-ethyl-1,14-dihydroxy-23,25-dimethoxy-13,19,21,27-tetramethyl-2,3,10,16-tetraoxo-11,28-dioxa-4-azatricyclo[22.3.1.0^4,9]octacos-18-ene]	0.99 nM
CC[C@@H]1/C=C(\C)C[C@H](C)C[C@H](OC)[C@H]2O[C@@](O)(C(=O)C(=O)N3CCCC[C@H]3C(=O)O[C@H](/C(C)=C/[C@@H]3CC[C@@H](OS(=O)(=O)NC(=O)OC)[C@H](OC)C3)[C@H](C)[C@@H](O)CC1=O)[C@H](C)C[C@@H]2OC [Example 1, (1R,9S,12S,13R,14S,17R,21S,23S,24R,25S,27R)-17-ethyl-1,14-dihydroxy-23,25-dimethoxy-12-{(E)-2-[(1R,3R,4R)-3-methoxy-4-({[(methoxycarbonyl)amino]sulfonyl)oxy)cyclohexyl]-1-methylethenyl}-13,19,21,27-tetramethyl-2,3,10,16-tetraoxo-11,28-dioxa-4-azatricyclo[22.3.1.0^4,9]octacos-18-ene]	0.73 nM
CC[C@@H]1/C=C(\C)C[C@H](C)C[C@H](OC)[C@H]2O[C@@](O)(C(=O)C(=O)N3CCCC[C@H]3C(=O)O[C@H](/C(C)=C/[C@@H]3CC[C@@H](OS(=O)(=O)NC(=O)OC4CCCCC4)[C@H](OC)C3)[C@H](C)[C@@H](O)CC1=O)[C@H](C)C[C@@H]2OC [Example 6, (1R,9S,12S,13R,14S,17R,21S,23S,24R,25S,27R)-12-((E)-2-{(1R,3R,4R)-4-[({[(cyclohexyloxy)carbonyl]amino}sulfonyl)oxy]-3-methoxycyclohexyl}-1-methylethenyl)-17-ethyl-1,14-dihydroxy-23,25-dimethoxy-13,19,21,27-tetramethyl-2,3,10,16-tetraoxo-11,28-dioxa-4-azatricyclo[22.3.1.0^4,9]octacos-18-ene]	4.7 nM
CC[C@@H]1/C=C(\C)C[C@H](C)C[C@H](OC)[C@H]2O[C@@](O)(C(=O)C(=O)N3CCCC[C@H]3C(=O)O[C@H](/C(C)=C/[C@@H]3CC[C@@H](OS(=O)(=O)NC(=O)OCc4ccccn4)[C@H](OC)C3)[C@H](C)[C@@H](O)CC1=O)[C@H](C)C[C@@H]2OC [Example 10, (1R,9S,12S.13R,14S,17R,21S,23S,24R,25S,27R)-17-ethyl-1,14-dihydroxy-23,25-dimethoxy-12-((E)-2-[(1R,3R,4R)-3-methoxy-4-[({[(2-pyridinylmethoxy)carbonyl]amino}sulfonyl)oxy]cyclohexyl]-1-methylethenyl)-13,19,21,27-tetramethyl-2,3,10,16-tetraoxo-11,28-dioxa-4-azatricyclo[22.3.1.0^4,9]octacos-18-ene]	0.16 nM
CC[C@@H]1/C=C(\C)C[C@H](C)C[C@H](OC)[C@H]2O[C@@](O)(C(=O)C(=O)N3CCCC[C@H]3C(=O)O[C@H](/C(C)=C/[C@@H]3CC[C@@H](OS(=O)(=O)NC(=O)OCc4ccccc4)[C@H](OC)C3)[C@H](C)[C@@H](O)CC1=O)[C@H](C)C[C@@H]2OC [Example 3, (1R,9S,12S,13R,14S,17R,21 S,23S,24R,25S,27R)-12-((E)-2-{(1R,3R,4R)-4-[({[(benzyloxy)carbonyl]amino]sulfonyl)oxy]-3-methoxycyclohexyl}-1-methylethenyl)-17-ethyl-1,14-dihydroxy-23,25-dimethoxy-13,19,21,27-tetramethyl-2,3,10,16-tetraoxo-11,28-dioxa-4-azatricyclo[22.3.1.0^4,9]octacos-18-ene]	3.96 nM
